In data set [1] the test system is MAYV. As to the kind of experiment: Antiviral CPE reduction assay. The format is cell-based, Mayaro virus (MAYV) strain TC625. Conditions: for Activity against MAYV (inhibition of MAYV-induced CPE): MOI 0.01.
The nature of data set [2]: Cytotoxicity assay on uninfected cells. Conditions: African green monkey.
In another data set the test system is CHIKV. Conditions: against CHIKV; cited from earlier work.
The subject of data set [3] is MAYV. The format is cell-based, Mayaro virus (MAYV) strain TC625. The following applies: for decrease in relative infectivity (ratio infectious virus vs. viral RNA): supernatant.
In data set [4] the test system is MAYV. As to the kind of experiment: Delay of treatment assay. Conditions: for reduction of intracellular RNA by time of addition: EIDD-1931 25 µM, favipiravir 300 µM, suramin 500 µM, qRT-PCR. The format is cell-based, Mayaro virus (MAYV) strain TC625. (In general: Quantitative PCR measures a nucleic acid by following its amplification.)
Another data set relates to Vero cells. As to the kind of experiment: Cytotoxicity assay on uninfected cells.
The nature of the next data set: in vitro. The following applies: African green monkey.
For data set [5], the system named is MAYV. Conditions: virus yield assay, cited from earlier work.

Where two headings read alike, the source gives them in different places.

The term EC50 denotes the concentration that produces a half-maximal response. On to `C[C@@]1(O)[C@H](O)[C@@H](CO)O[C@H]1n1ccc(N)nc1=O` [2’CMC, 2′-C-methylcytidine], for which, in the data set on MAYV [1] (Mayaro virus, Vero, 72 h), the 50% effective concentration (EC50) is over 20 µM. Moreover, the “Activity against MAYV (inhibition of MAYV-induced CPE)” value with MAYV [1] (Vero cells) is given as “not able to inhibit MAYV”. Moreover, in data set [2], the CC50 at 3 days stood at 167 ± 7 µM.

`C[C@@]1(O)[C@H](O)[C@@H](CO)O[C@H]1n1ccc2c(N)ncnc21` [7DMA, 7-Deaza-2′-C-methyladenosine] registered an EC50 in the data set on MAYV [1] (Mayaro virus, Vero, 72 h) of over 60 µM. In addition, in the data set with MAYV [1] (Vero cells), the “Activity against MAYV (inhibition of MAYV-induced CPE)” value was “not able to inhibit MAYV”. Further, the CC50 at 3 days in data set [2] is over 600 µM.

For `CCOC(=O)c1c(CSc2ccccc2)n(C)c2cc(Br)c(O)c(CN(C)C)c12` [Arbidol], the EC50 is over 60 µM in the data set with MAYV [1] (Mayaro virus, Vero, 72 h) and 12 µM in the data set on CHIKV. Moreover, in the data set on MAYV [1] (Vero cells), the “Activity against MAYV (inhibition of MAYV-induced CPE)” value was “did not show activity against MAYV”. In data set [2], this compound came in with a CC50 at 3 days of over 100 µM.

For the compound `CCN(CC)CCCC(C)Nc1ccnc2cc(Cl)ccc12` (centres unmarked) [Chloroquine], the EC50 was over 200 µM in the data set on MAYV [1] (Mayaro virus, Vero, 72 h) and about 10 µM with CHIKV. Moreover, the “Activity against MAYV (inhibition of MAYV-induced CPE)” value in the data set with MAYV [1] (Vero cells) is listed as “did not show activity against MAYV”.

Take `O=c1nc(NO)ccn1[C@@H]1O[C@H](CO)[C@@H](O)[C@H]1O` [EIDD-1931, β-D-N^4-hydroxycytidine]: the concentration giving a half-maximal response (EC50) with MAYV [1] (Vero cells, MAYV MOI 0.01, day 3 pi, MTS/PMS read-out) came out at 1.6 ± 0.5 µM. Besides, in the data set on MAYV [3], the “decrease in infectious virus” value was ~ 8 log10; the “reduction in viral RNA and infectious virus content with increasing concentrations” value (from here on “reduction … with increasing concentrations”) is “dose-dependent reduction”. In addition, the “inhibitory effect in virus yield assay” value in the data set on MAYV [3] (3.1 µM) is recorded as “inhibitory effect was still observed”. Besides, the “decrease in relative infectivity (ratio infectious virus vs. viral RNA)” value in the data set with MAYV [3] (starting from 6 µM) is given as ~ 1000 fold. Besides, the “activity on infectious virus” value in the data set on MAYV [4] (25 µM, added at 6 h pi) is given as “modest activity”. Also, the “decrease in infectious virus” value in the data set on MAYV [4] (25 µM, added until 4 h pi, […], 10 h pi) is 2–3 log10. For the same compound, in the data set with MAYV [4] ([…], 10 h pi), the “reduction of intracellular RNA by time of addition” value (shortened to “reduction of intracellular RNA”) is listed as “still resulted in a reduction when added until 2 h pi”. In the data set on Vero cells (uninfected Vero cells, day 3, microscopically or MTS/PMS), this compound displayed a CC50 of over 100 µM.

In the data set with MAYV [1] (Mayaro virus, Vero, 72 h), `NC(=O)c1nc(F)c[nH]c1=O` [Favipiravir] had an EC50 of 79 ± 4 µM. In the data set on MAYV [3], the “decrease in infectious virus” value was ~ 8 log10; the “reduction … with increasing concentrations” value was “dose-dependent reduction”. In addition, in the data set with MAYV [3] (75 µM), the “inhibitory effect in virus yield assay” value is reported as “inhibitory effect was still observed”. Moreover, in the data set on MAYV [3] (starting from 75 µM), the “decrease in relative infectivity (ratio infectious virus vs. viral RNA)” value was ~ 100 fold. Also, in the data set with MAYV [4] (300 µM, added until 2 h pi, […], 10 h pi), the “reduction of viral titers” value is reported as 2–3 log10. In addition, in the data set on MAYV [4] ([…], 10 h pi), the “reduction of intracellular RNA” value is “only when added at early time points (2 h prior to infection and 0 h pi)”. Also, the CC50 at 3 days in data set [2] was found to be 2840 ± 86 µM.

In turn, `Nc1ncnc2c([C@@H]3N[C@H](CO)[C@@H](O)[C@H]3O)c[nH]c12` [Galidesivir] returned an EC50 with MAYV [1] (Mayaro virus, Vero, 72 h) of over 100 µM. Also, the “Activity against MAYV (inhibition of MAYV-induced CPE)” value in the data set on MAYV [1] (Vero cells) is recorded as “not able to inhibit MAYV”. In data set [2], this compound had a CC50 at 3 days of 238 ± 36 µM.

In the case of `CCC(CC)COC(=O)[C@H](C)N[P@](=O)(OC[C@H]1O[C@@](C#N)(c2ccc3c(N)ncnn23)[C@H](O)[C@@H]1O)Oc1ccccc1` [Remdesivir], the EC50 with MAYV [1] (Mayaro virus, Vero, 72 h) is over 100 µM. Further, the “Activity against MAYV (inhibition of MAYV-induced CPE)” value in the data set with MAYV [1] (Vero cells) is “not able to inhibit MAYV”. In the data set “in vitro”, this compound displayed a CC50 at 3 days of 297 ± 101 µM.

Consider `NC(=O)c1ncn([C@@H]2O[C@H](CO)[C@@H](O)[C@H]2O)n1` [Ribavirin, 1-(β-D-ribofuranosyl)-1H-1,2,4-triazole-3-carboxamide], for which the EC50 was over 200 µM in the data set with MAYV [1] (Mayaro virus, Vero, 72 h); 62.5 µM in the data set with MAYV [5] (strain TR4675, MOI 0.05); 255 µM with MAYV [5] (strain TR4675, MOI 0.1). Besides, in the data set with MAYV [1] (Vero cells), the “Activity against MAYV (inhibition of MAYV-induced CPE)” value is recorded as “not active against MAYV”. Also, the “blocking MAYV infectivity” value in the data set on MAYV [3] is “not effective”. The “signs of toxicity determined microscopically” value in the data set on Vero cells (concentrations higher than 200 µM) was “signs of toxicity were determined microscopically at higher concentrations”. Further, the CC50 at 3 days in data set [2] was 250 ± 81 µM.

`Cc1ccc(C(=O)Nc2ccc(S(=O)(=O)O)c3cc(S(=O)(=O)O)cc(S(=O)(=O)O)c23)cc1NC(=O)c1cccc(NC(=O)Nc2cccc(C(=O)Nc3cc(C(=O)Nc4ccc(S(=O)(=O)O)c5cc(S(=O)(=O)O)cc(S(=O)(=O)O)c45)ccc3C)c2)c1` [Suramin] displayed a concentration for a half-maximal effect (EC50) in the data set with MAYV [1] (Mayaro virus, Vero, 72 h) of 124 ± 26 µM. Moreover, the CC50 at 3 days in the data set “in vitro” is over 2000 µM. Also, in the data set with MAYV [3], the “decrease in infectious virus” value is reported as ~ 5 log10; the “reduction … with increasing concentrations” value is listed as “dose-dependent reduction”. For the same compound, the “relative infectivity of MAYV” value in the data set with MAYV [3] (all concentrations with the exception of the highest tested (500 µM)) was “not affected”. The “decrease of infectious virus titers” value in the data set on MAYV [4] is listed as ~ −2 log10. Further, the “reduction of intracellular RNA” value in the data set with MAYV [4] ([…], 10 h pi) was “only when added at early time points (2 h prior to infection and 0 h pi)”.

The record behind these values is publication PMC8065421, “Repurposing Drugs for Mayaro Virus: Identification of EIDD-1931, Favipiravir and Suramin as Mayaro Virus Inhibitors” (Microorganisms, 2021).
